{
  "source": "patent US7858659B2",
  "about": "“Redox therapy for tumors” (priority 2003, dated 2010)",
  "origin": "cited, not measured here",
  "key": {"U937 cancer cells": {"system": "U937 cancer cells", "conditions": "Lizard et al. 1998; cited from earlier work"}, "[1]": {"system": "prostate cancer cell lines", "conditions": "green tea phenols; cited from earlier work"}, "malignant cells [2]": {"system": "malignant cells", "conditions": "Table 1; BSO: [Kito]; cited from earlier work"}, "[3]": {"conditions": "Example 4 table; cited from earlier work"}, "malignant cells [4]": {"system": "malignant cells", "conditions": "cited from earlier work; for Effective Concentration in vitro: Example 4 table; for Concentration: Table 1"}, "mice": {"system": "mice", "conditions": "mouse, in vivo; cited from earlier work"}, "malignant cells [5]": {"system": "malignant cells", "conditions": "BSO by itself; Dai et al. 1999; cited from earlier work"}, "adults": {"system": "adults", "conditions": "cited from earlier work"}, "neuroblastoma cells": {"system": "neuroblastoma cells", "conditions": "Nicole et al. 1998; cited from earlier work"}, "[6]": {"conditions": "cited from earlier work; for Solubility: Example 4 table"}, "mice/rats": {"system": "mice/rats", "conditions": "cited from earlier work"}, "[7]": {"target": "T1, glutathione reductase (GR) (Mus musculus, UniProt P47791)", "T1 construct": "recovery of enzyme activity in exponentially growing murine leukemia (L1210) cells treated with 1,3-bis(2-chloroethyl)-1-nitrosourea", "T1 sequence (P47791 27-500)": "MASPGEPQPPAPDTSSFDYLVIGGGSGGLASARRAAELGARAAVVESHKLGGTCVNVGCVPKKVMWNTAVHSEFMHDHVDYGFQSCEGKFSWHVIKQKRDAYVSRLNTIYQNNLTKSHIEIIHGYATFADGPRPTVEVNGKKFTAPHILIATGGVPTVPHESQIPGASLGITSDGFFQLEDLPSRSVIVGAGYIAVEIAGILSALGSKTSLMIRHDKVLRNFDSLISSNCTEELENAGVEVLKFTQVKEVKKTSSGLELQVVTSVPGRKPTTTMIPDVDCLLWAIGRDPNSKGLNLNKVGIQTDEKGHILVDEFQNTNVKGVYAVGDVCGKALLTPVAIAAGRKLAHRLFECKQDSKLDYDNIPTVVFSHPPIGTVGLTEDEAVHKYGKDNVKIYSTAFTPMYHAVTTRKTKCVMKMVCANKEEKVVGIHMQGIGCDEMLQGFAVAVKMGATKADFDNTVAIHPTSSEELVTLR", "conditions": "Cohen 1988, cited from earlier work"}, "rats": {"system": "rats", "conditions": "cited from earlier work"}, "A-427 and A-172": {"system": "A-427 and A-172", "conditions": "various cancer cell lines, such as A-427 and A-172; cited from earlier work"}, "[8]": {"system": "normal human bronchial fibroblasts and human bronchial epithelial cells", "conditions": "cited from earlier work"}, "normal lymphocytes": {"system": "normal lymphocytes", "conditions": "Sen et al. 1999; cited from earlier work"}, "[9]": {"system": "Jurkat T-cell leukemia cells", "conditions": "Sen et al. 1999; cited from earlier work"}},
  "note": "Read-outs that look alike come from different tables or passages of the source.",
  "data": [
    {"molecule": "CC(C)CCC[C@@H](C)[C@H]1CC[C@H]2[C@@H]3C(=O)C=C4C[C@@H](O)CC[C@]4(C)[C@H]3CC[C@]12C", "note": "[7-ketocholesterol]", "values": [
      {"measurement": "apoptosis", "setting": "U937 cancer cells", "value": "induced apoptosis"}
    ]},
    {"molecule": "O=C(O[C@@H]1Cc2c(O)cc(O)cc2O[C@@H]1c1cc(O)c(O)c(O)c1)c1cc(O)c(O)c(O)c1", "note": "[(−)-epigallocatechin-3-gallate]", "values": [
      {"measurement": "apoptosis", "setting": "[1]", "value": "induced apoptosis"}
    ]},
    {"molecule": "CCCCS(=N)(=O)CCC(N)C(=O)O", "note": "(stereo not drawn) [BSO, buthionine sulfoximine]", "values": [
      {"measurement": "apoptosis", "setting": "malignant cells [2]", "value": "Enhancement [Kito]"},
      {"measurement": "Toxicity", "setting": "[3]", "value": "10,000 microM"},
      {"measurement": "Effective Concentration in vitro", "setting": "malignant cells [4]", "value": 100, "unit": "µM"},
      {"measurement": "Concentration", "setting": "malignant cells [4]; disulfiram: [Cen]", "value": "10 to 25", "unit": "µM"},
      {"measurement": "Toxicity", "setting": "mice", "value": "9.6 g/kg (mice) →"},
      {"measurement": "apoptosis", "setting": "malignant cells [5]", "value": "did not induce significant apoptosis"},
      {"measurement": "decrease in [GSH] in the cell", "setting": "malignant cells [5]", "value": 70, "unit": "%"},
      {"measurement": "Toxicity: nausea/vomiting", "setting": "adults; [Bailey]", "value": "occasional"},
      {"measurement": "apoptosis", "setting": "neuroblastoma cells", "value": "induced apoptosis"},
      {"measurement": "decrease of GSH content", "setting": "neuroblastoma cells", "value": 98, "unit": "%"},
      {"measurement": "Solubility", "setting": "[6]", "value": "soluble"},
      {"measurement": "Solubility [Merck]", "setting": "[6]; Table 1, in words", "value": "Soluble"}
    ]},
    {"molecule": "O=NN(CCCl)C(=O)NCCCl", "note": "[Carmustine, N,N′-bis(2-chloroethyl)-N-nitrosourea]", "values": [
      {"measurement": "LD50 [Merck]", "setting": "mice/rats", "value": "25 to 30", "unit": "mg/kg"},
      {"measurement": "apoptosis", "setting": "malignant cells [2]", "value": "Induction"},
      {"measurement": "Effective Concentration in vitro", "setting": "malignant cells [4]", "value": 0.05, "unit": "µM"},
      {"measurement": "Concentration", "setting": "malignant cells [4]; [Cohen & Duval]", "value": 50, "unit": "ng/mL"},
      {"measurement": "activity of GR restored", "setting": "[7]; 12 hours, de novo synthesis", "value": 50, "unit": "%"},
      {"measurement": "GR restored", "setting": "[7]; 24 hours, de novo synthesis", "value": 70, "unit": "%"},
      {"measurement": "concentration with which GR is inhibited", "setting": "[7]; only carmustine present", "value": 10, "unit": "µM"},
      {"measurement": "time within which GR is inhibited", "setting": "[7]; with 10 μM", "value": "½"},
      {"measurement": "Solubility", "setting": "[6]", "value": 40, "unit": "µM"},
      {"measurement": "Solubility [Merck]", "setting": "[6]; Table 1", "value": 4, "unit": "mg/L"}
    ]},
    {"molecule": "CCN(CC)C(=S)SSC(=S)N(CC)CC", "note": "[Disulfiram]", "values": [
      {"measurement": "Toxicity", "setting": "[3]", "value": "10,000 microM"},
      {"measurement": "Toxicity", "setting": "adults; adults", "value": "3 g (adults)"},
      {"measurement": "Solubility", "setting": "[6]", "value": "2,000 microM"},
      {"measurement": "Solubility [Merck]", "setting": "[6]; Table 1", "value": 0.02, "unit": "g/100 ml"},
      {"measurement": "LD50 [Merck]", "setting": "rats", "value": "8600 mg/kg (rats)"}
    ]},
    {"molecule": "C=CC=O", "note": "[acrolein]", "values": [
      {"measurement": "cytotoxicity", "setting": "A-427 and A-172", "value": "induced cytotoxicity"},
      {"measurement": "toxicity to normal cells", "setting": "[8]", "value": "highly toxic"}
    ]},
    {"molecule": "O=C(O)CCCCC1CCSS1", "note": "(stereo not drawn) [α-lipoic acid]", "values": [
      {"measurement": "apoptosis", "setting": "normal lymphocytes", "value": "did not"},
      {"measurement": "apoptosis", "setting": "[9]", "value": "underwent apoptosis"}
    ]}
  ]
}
